Broadly, the solubility is the concentration that dissolves in the medium under given conditions.

The values that follow come from US12447141B2, “Liquid tasimelteon formulations and methods of use thereof” (Vanda Pharmaceuticals Inc., priority 2019, dated 2025).

Converted amounts (≈) assume the structure as drawn.

Data set [1] can be described thus: Solubility and pH of saturated solution. Particulars: water. Format: physicochemical.
A short description of data set [2]: Chemical / storage stability of tasimelteon and its suspensions. Particulars: formation of three degradation products. Format: physicochemical. As to the method: Ascorbic acid preferentially undergoes oxidation, thereby preventing oxidation of tasimelteon, but also imparts a yellow color to the suspension on storage, especially when stored at 40° C./75% RH for >3 months, which is the accelerated storage condition for products stored at room temperature (6 months of satisfactory stability is necessary at 40° C./75% RH in order to justify long-term storage at room temperature/25° C./60% RH). Because of the color change from white/off-white to yellow after 3 months storage at 40° C./75% RH, it is necessary to store the suspension at 5° C., for which the accelerated storage condition is 25° C./60% RH and up to 6 months of satisfactory stability data at this storage condition are available (i.e., color change is from white/off-white to slightly yellow).
Short-term stability studies can be undertaken under storage conditions at (1) 5±3° C., (2) 25±2° C. (at 60±5% relative humidity), and 40±2° C. (at 75±5% relative humidity) for one to three months. Under such conditions, total impurities as determined by HPLC for pharmaceutically acceptable compositions are, for example, not more than 2.0 percent by weight or not more than 0.5 percent by weight with respect to known impurities, and not more than 0.2 percent by weight with respect to unspecified impurities.

The test system of data set [3] is Smith-Magenis Syndrome (SMS). The data set can be described thus: Study of efficacy of tasimelteon in disorders including SMS, once daily before bedtime. Format: in vivo, pediatric patients. As to the method: (§1) One common symptom of SMS is a chronically disrupted sleep pattern, which is found at all ages. In a study to determine the efficacy of tasimelteon in the treatment of disorders, including SMS, oral (20 mg capsule or 4 mg/mL suspension) and intravenous (0.4 mg/mL) formulations were administered once per day before bedtime to pediatric patients 3-17 years old.
Treatment efficacy was assessed by improvements in nighttime sleep (i.e., reduced nighttime activity interrupting the sleep period, improved sleep efficiency, reduced variability in sleep onset, reduced variability in morning awakenings, and/or improved sleep quality), reduced daytime sleepiness, reduced behavioral problems (i.e., reduced aggressive behavior, reduced temper tantrums, reduced hyperactivity, and/or reduced attention deficits).

Data set [4] in a line: Apparent clearance in the pediatric study. Format: in vivo, pediatric patients. Particulars: children with body mass greater than 28 kg. On the procedure:
as §1

The conditions of data set [5]: known in the art, cited from earlier work.

In turn, `OC[C@@H](O)[C@@H](O)[C@H](O)[C@H](O)CO` [mannitol] registered a solubility in data set [1] of approximately 200 mg/mL (≈ 1100 mM).
With `CCC(=O)NC[C@@H]1C[C@H]1c1cccc2c1CCO2` [tasimelteon, trans-N-[[2-(2,3-dihydrobenzofuran-4-yl)cycloprop-1-yl]methyl]propanamide], in data set [1], the solubility is approximately 1 mg/mL (≈ 4.08 mM). Besides, in data set [2], the oxidative degradation result is recorded as “susceptible to oxidative degradation”. In addition, the results for the consistently effective dose in data set [3] (patients with body mass greater than 28 kg) and in data set [3] (patients with body mass of 28 kg or less) were 20 mg and 0.7 mg/kg, respectively. Also, the apparent clearance entry in data set [4] is “constant and similar to that of adults”. In addition, in data set [5] (95% ethanol, methanol, acetonitrile, ethyl acetate, isopropanol, polyethylene glycols (PEG-300 and PEG-400)), the “solubility in organic solvents” value is “highly soluble”. Moreover, the “effect of pH on aqueous solubility” value in data set [5] is on record as “substantially unaffected by pH”. Further, in data set [5] (saturated solution in water), the “native pH of a saturated solution in water” value is recorded as 8.5. Also, the solubility in water result in data set [5] (water) is recorded as “poorly soluble”.
